Measurements reported in patent US5574023A, “Intramolecularly crosslinked (1→3)-β-D-glucans” (Seikagaku Kogyo Kabushiki Kaisha (Seikagaku Corporation), priority 1991, dated 1996).

Tests used:
[1] = tested on: Sarcoma 180 cells; experiment: Tumor inhibition rate, Sarcoma 180 transplanted subcutaneously in mice; type: in vivo, CLJ-ICR female mice; settings: intraperitoneal, 10 times (days 1-5 and 7-11), tumor weight on day 13 versus untreated control; for % Tumor inhibition, after one month: sample administered after one month storage at 4° C.; for % Tumor inhibition, initial: sample administered immediately after preparation
Description: Sarcoma 180 cells (5×10^6 cells) were transplanted subcutaneously into the groin of each of 6-week-old CLJ-ICR female mice weighing about 25 g. The intramolecularly crosslinked, single helix conformation (1→3)-β-D-glucans of the invention as obtained in Examples 1-10 and the uncrosslinked, single helix conformation schizophyllan of Comparative Example were respectively administered to the mice at 24 hours after transplantation (day 1) and thereafter once daily on days 1-5 and 7-11 (10 times in total). Thus, each sample was comminuted in a mortar, suspended or dissolved in physiological saline for injection, sterilized in an autoclave at 121° C. for 20 minutes, and then intraperitoneally administered. In a control group, no glucan was given to mice.
On day 13, tumor nodules were excised and weighed, and their weights were compared with the tumor weight in the untreated control group for calculating tumor inhibition rates.
In the above test, sample solutions or suspensions were administered immediately after preparation on one hand and, on the other, the solutions or suspensions were administered after one month storage at 4° C.

[2] = tested on: Horseshoe crab lysate factor G; experiment: Factor G activating ability (pNA release from Boc-Leu-Gly-Arg-pNA); type: biochemical; settings: for % Retention of factor G activating ability after one month: aqueous solution or suspension stored one month at 4° C., versus initial value
Description: For each sample to be tested, a reaction mixture (200 μl) containing the sample, water and the ingredients mentioned below was prepared. […]
This reaction mixture was incubated at 37° C. for 30 minutes and, then, p-nitroaniline (pNA) liberated was quantitated. Thus, to the sample after incubation were added 0.5 ml each of 0.04% sodium nitrite (solution in 0.48M hydrochloric acid), 0.3% ammonium sulfamate and 0.07% N-1-naphthylethylenediamine dihydrichloride in that order for causing a change in color tone due to diazo coupling, and the absorbance at 545 nm (A545) was determined.
This measurement was performed for an aqueous solution or suspension of each substance immediately after synthesis thereof. The same measurement was also performed after one month storage of the sample at 4° C., the minimum concentration (C, g/ml) at which the absorbance at 545 nm amounted to 0.1 was determined, and the factor G activating ability was expressed in terms of -log C (g/ml) value. By comparing this value with the initial value, the rate of retention of factor G activating ability was calculated.

[3] = Single helix conformation content by high-resolution 13C-NMR of hydrated solid sample; type: physicochemical; settings: for Single helix conformation % retention after one month: aqueous solution or suspension stored aseptically at 4° C. for 1 month, versus initial value; for Single helix conformation content in hydrated solid sample: immediately after synthesis, 13C-NMR
Description: Each sample was deprived of water by lyophilization and then maintained in saturated water vapor, and the hydrated solid sample obtained was subjected to high-resolution ^13 C-NMR spectrometry. The single helix conformation content in the (1→3)-β-D-glucan in the sample was calculated by comparing the chemical shift peak heights for each carbon atom with the peak heights of the chemical shifts shown in Table 1 for other higher-order structure carbon atoms.
The single helix conformation contents thus obtained from the chemical shifts of C-2, C-3 and C-5 and the respective peak heights are shown in Table 2.
Furthermore, aqueous solutions or suspensions were stored in aseptic condition at 4° C. for 1 month and then tested for single helix conformation content in the same manner. The data obtained were compared with the initial values and the rates of retention of the respective single helix conformations contained were calculated. The uncrosslinked, single helix conformation schizophyllan, when subjected to solid-phase ^13 C-NMR spectrometry immediately after formation of said conformation, gave a single helix conformation content of 60% but, after one-month storage, the content of said structure was only 6% (10% retention). This is due to advanced transformation from the single helix conformation to other higher-order structures.

Substance | Single helix conformation % retention after one month [3] | Single helix conformation content in hydrated solid sample [3] | % Tumor inhibition, after one month [1] | % Tumor inhibition, initial [1] | % Retention of factor G activating ability after one month [2] | Initial factor G activating ability, -log C (minimum concentration at which A545 amounted to 0.1) ([2]; immediately after synthesis, 37° C., 30 minutes)
2,3,4-Trihydroxyadipodialdehyde-crosslinked hydrazinocurdlan [Example 3] | 80% | 70% | 92.1% | 100% | 20% | –
Dodecamethylenediamine-crosslinked aldehyde schizophyllan [Example 4] | 100% | 75% | 98.4% | 100% | 100% | –
Glutardialdehyde-crosslinked hydrazinocurdlan (no receptor added) [Example 1] | 60% | 70% | 70.0% | 98.0% | 10% | 11 -log C (g/ml)
Glutardialdehyde-crosslinked hydrazinocurdlan [Example 2] | 70% | 65% | 91.1% | 98.2% | 20% | –
Pimelic acid-crosslinked hydrazinoschizophyllan [Example 5] | 60% | 55% | 65.6% | 95.3% | 10% | –

Continued, in another order:

Single helix conformation % retention after one month [3] | Single helix conformation content in hydrated solid sample [3] | Substance | % Tumor inhibition, after one month [1] | % Tumor inhibition, initial [1] | % Retention of factor G activating ability after one month [2] | Initial factor G activating ability, -log C (minimum concentration at which A545 amounted to 0.1) ([2]; immediately after synthesis, 37° C., 30 minutes)
90% | 70% | 2,3,4-Trihydroxyadipodihydrazide-crosslinked aldehyde schizophyllan [Example 6] | 96.1% | 100% | 30% | –
53% | 23% | Glutardialdehyde-crosslinked hydrazino yeast glucan [Example 9] | 73.0% | 90.0% | 20% | –
52% | 35% | Glutardialdehyde-crosslinked hydrazinolentinan [Example 10] | 80.0% | 96.0% | 20% | –
80% | 70% | Glutardialdehyde-crosslinked hydrazinoschizophyllan [Example 7] | 95.0% | 100% | 25% | –
70% | 60% | Hexamethylenedihydrazine-crosslinked carboxymethylated curdlan [Example 8] | 75.3% | 98.2% | 10% | –
